SMILES strings stand for the structures. Where “and” joins values, the source holds several entries; their conditions need not be identical. Equal values may be shown once.

Take `COc1cc(N2CCN(C3CCN(c4ccc(F)c5cccnc45)CC3)CC2)c2ncccc2c1` (hydrate or solvate) [Form A, 6-methoxy-8-[4-(1-(5-fluoro)-quinolin-8-yl-piperidin-4-yl)-piperazin-1-yl]-quinoline]: the melting point was ~ 196 °C and 198 °C.
